Holding throughout (experiment): In vitro competitive activity-based protein profiling (gel-based, FP-Rh or HT-01 probe)
Type in all cases: biochemical

The target in one assay is T1, FAAH (Mus musculus, UniProt O08914).
T1 construct: Proteomes (mouse brain membrane fraction or cell lysates); from tissue; host or cells: mouse brain membrane fraction (or cell lysates, not specified)
T1 sequence (O08914 1-579): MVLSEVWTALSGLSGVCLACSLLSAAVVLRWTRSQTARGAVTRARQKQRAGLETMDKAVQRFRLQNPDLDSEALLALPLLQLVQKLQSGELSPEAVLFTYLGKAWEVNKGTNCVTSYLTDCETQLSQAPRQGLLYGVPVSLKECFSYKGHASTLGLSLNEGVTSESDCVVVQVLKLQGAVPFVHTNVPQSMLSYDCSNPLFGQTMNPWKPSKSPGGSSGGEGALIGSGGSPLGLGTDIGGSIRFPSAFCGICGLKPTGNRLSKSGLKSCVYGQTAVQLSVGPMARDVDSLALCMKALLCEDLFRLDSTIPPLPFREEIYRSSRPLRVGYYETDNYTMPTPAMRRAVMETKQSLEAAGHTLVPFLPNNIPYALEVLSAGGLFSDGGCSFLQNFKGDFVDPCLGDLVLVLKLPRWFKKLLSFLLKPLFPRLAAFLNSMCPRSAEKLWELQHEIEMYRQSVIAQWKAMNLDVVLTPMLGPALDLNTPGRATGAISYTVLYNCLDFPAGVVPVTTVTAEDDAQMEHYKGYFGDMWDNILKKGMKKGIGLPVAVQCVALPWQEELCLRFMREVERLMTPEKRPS
As to conditions: for inhibition at 1 µM: 1 μM inhibitor, read-out: % Inhibition at 1 μM, B = FAAH; for inhibition at 10 µM: 10 μM inhibitor, read-out: % Inhibition at 10 μM, B = FAAH; for IC50: mouse brain membrane fraction or cell lysates, 30 min preincubation at 37° C., read-out: Mouse (IC50 value, nM) FAAH. An outline of the steps: (§1)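 Mouse brain membrane or cell lysate proteomes (1.0 mg/mL) preincubated with inhibitors 30 min at 37° C, then labelled with FP-Rh or HT-01 for 30 min at 37° C. After SDS-PAGE, activity quantified from fluorescent band intensity.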

Another assay concerns the target T2, ABHD6 (Mus musculus, UniProt Q8R2Y0).
T2 construct: Proteomes (mouse brain membrane fraction or cell lysates); from tissue; host or cells: mouse brain membrane fraction (or cell lysates, not specified)
T2 sequence (Q8R2Y0 1-336): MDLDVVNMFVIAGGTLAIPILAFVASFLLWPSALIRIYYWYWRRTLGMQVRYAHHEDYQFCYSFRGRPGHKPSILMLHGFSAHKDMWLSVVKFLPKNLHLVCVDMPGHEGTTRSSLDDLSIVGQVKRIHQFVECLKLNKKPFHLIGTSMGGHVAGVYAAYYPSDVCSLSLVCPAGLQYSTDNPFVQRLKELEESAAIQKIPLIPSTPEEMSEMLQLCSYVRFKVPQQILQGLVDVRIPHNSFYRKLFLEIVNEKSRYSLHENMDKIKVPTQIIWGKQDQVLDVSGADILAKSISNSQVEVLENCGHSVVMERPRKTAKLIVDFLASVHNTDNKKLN
As to conditions: for inhibition at 1 µM: 1 μM inhibitor, read-out: % Inhibition at 1 μM, C = ABHD6; for inhibition at 10 µM: 10 μM inhibitor, read-out: % Inhibition at 10 μM, C = ABHD6; for IC50: mouse brain membrane fraction or cell lysates, 30 min preincubation at 37° C., read-out: Mouse (IC50 value, nM) ABHD6. Summed up: as §1

The target of another assay is T3, PLA2G7 (Mus musculus, UniProt Q60963).
T3 construct: Proteomes (mouse brain membrane fraction or cell lysates); from tissue; host or cells: mouse brain membrane fraction (or cell lysates, not specified)
T3 sequence (Q60963 22-440): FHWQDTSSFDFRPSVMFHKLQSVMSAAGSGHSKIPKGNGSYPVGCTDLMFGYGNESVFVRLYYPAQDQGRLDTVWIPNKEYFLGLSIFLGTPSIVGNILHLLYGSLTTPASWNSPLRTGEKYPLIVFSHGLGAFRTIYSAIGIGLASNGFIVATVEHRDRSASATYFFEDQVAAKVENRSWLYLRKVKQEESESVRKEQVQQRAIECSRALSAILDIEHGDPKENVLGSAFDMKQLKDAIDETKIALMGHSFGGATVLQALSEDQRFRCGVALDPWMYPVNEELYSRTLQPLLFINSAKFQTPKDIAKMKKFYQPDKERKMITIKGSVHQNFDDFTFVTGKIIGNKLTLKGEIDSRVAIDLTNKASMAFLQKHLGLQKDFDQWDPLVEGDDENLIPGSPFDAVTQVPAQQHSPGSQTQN
As to conditions: for inhibition at 1 µM: 1 μM inhibitor, read-out: % Inhibition at 1 μM, D = PLA2G7; for inhibition at 10 µM: 10 μM inhibitor, read-out: % Inhibition at 10 μM, D = PLA2G7; for IC50: mouse brain membrane fraction or cell lysates, 30 min preincubation at 37° C. Summed up:
as §1

Another assay deals with T4, MAGL (Mus musculus, UniProt O35678).
T4 construct: Proteomes (mouse brain membrane fraction or cell lysates); from tissue; host or cells: mouse brain membrane fraction (or cell lysates, not specified)
T4 sequence (O35678 1-303): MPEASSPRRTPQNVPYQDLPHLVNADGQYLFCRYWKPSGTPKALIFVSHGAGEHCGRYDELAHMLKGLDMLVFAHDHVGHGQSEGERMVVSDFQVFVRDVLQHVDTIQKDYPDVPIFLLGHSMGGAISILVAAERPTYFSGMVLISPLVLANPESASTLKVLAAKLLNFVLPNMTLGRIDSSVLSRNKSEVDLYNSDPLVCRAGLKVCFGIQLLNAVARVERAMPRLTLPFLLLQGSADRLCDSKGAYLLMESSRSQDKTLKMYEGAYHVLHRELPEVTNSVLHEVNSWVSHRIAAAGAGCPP
Particulars: for inhibition at 1 µM: 1 μM inhibitor; for inhibition at 10 µM: 10 μM inhibitor; for IC50: mouse brain membrane fraction or cell lysates, 30 min preincubation at 37° C., read-out: Mouse (IC50 value, nM) MAGL. Summed up:
as §1

As usually defined, the inhibition is how much of the control response was suppressed. The term IC50 denotes the concentration that gives 50% inhibition.

As for `O=C(N1CCCCC1)n1cc(C(F)(F)F)cn1` [Example 200, Piperidin-1-yl(4-(trifluoromethyl)-1H-pyrazol-1-yl)methanone], the inhibition at 1 µM on FAAH, at ABHD6, on PLA2G7 and at MAGL was more than 75% throughout. The inhibition at 10 µM on FAAH, on ABHD6, at PLA2G7 and at MAGL was more than 75% in each case. Besides, the concentration for half-maximal inhibition (IC50) on FAAH is 100 to 1000 nM; on ABHD6 it was 100 to 1000 nM; on PLA2G7, 100 to 1000 nM; on MAGL, more than 1000 nM.
`O=C(N1CCOCC1)n1cc(C(F)(F)F)cn1` [Example 201, Morpholino(4-(trifluoromethyl)-1H-pyrazol-1-yl)methanone]: the inhibition at 1 µM is more than 75% at FAAH, more than 75% on ABHD6, more than 75% at PLA2G7 and less than 25% on MAGL. In addition, the inhibition at 10 µM was more than 75% on FAAH, more than 75% at ABHD6, more than 75% at PLA2G7 and 25 to 75% at MAGL.
Turning to `O=C(N1CCN(c2ccccc2)CC1)n1cc(C(F)(F)F)cn1` [Example 202, (4-Phenylpiperazin-1-yl)(4-(trifluoromethyl)-1H-pyrazol-1-yl)methanone], the inhibition at 1 µM at FAAH, on ABHD6, at PLA2G7 and on MAGL was more than 75% in each case. Moreover, the inhibition at 10 µM on FAAH, on ABHD6, on PLA2G7 and on MAGL was more than 75% each time.
Regarding `N#Cc1cnn(C(=O)N2CCCC2)c1` [Example 203, 1-(Pyrrolidine-1-carbonyl)-1H-pyrazole-4-carbonitrile], the inhibition at 1 µM was more than 75% at FAAH, less than 25% on ABHD6, less than 25% on PLA2G7 and less than 25% at MAGL. Besides, the inhibition at 10 µM at FAAH, on ABHD6, on PLA2G7 and on MAGL was more than 75% throughout.
`NC(=O)c1cnn(C(=O)N2CCN(Cc3ccc(Cl)cc3)CC2)c1` [Example 204, 1-(4-(4-chlorobenzyl)piperazine-1-carbonyl)-1H-pyrazole-4-carboxamide]: the inhibition at 1 µM on FAAH is more than 75%; at ABHD6, more than 75%; at PLA2G7, less than 25%; at MAGL, more than 75%. Besides, the half-maximal inhibitory concentration (IC50) at FAAH was 100 to 1000 nM; on ABHD6, less than 100 nM; at PLA2G7, more than 1000 nM; on MAGL, less than 100 nM.
Regarding `N#Cc1cnn(C(=O)N2CCOCC2)c1` [Example 205, 1-(Morpholine-4-carbonyl)-1H-pyrazole-4-carbonitrile], the inhibition at 1 µM on FAAH is more than 75%; at ABHD6, 25 to 75%; on PLA2G7, more than 75%; at MAGL it was less than 25%. In addition, the inhibition at 10 µM is more than 75% on FAAH, more than 75% on ABHD6, more than 75% on PLA2G7 and 25 to 75% on MAGL.
Take `N#Cc1cnn(C(=O)N2CCN(c3ccccc3)CC2)c1` [Example 206, 1-(4-Phenylpiperazine-1-carbonyl)-1H-pyrazole-4-carbonitrile]: the inhibition at 1 µM at FAAH, on ABHD6, on PLA2G7 and on MAGL was more than 75% throughout. The inhibition at 10 µM on FAAH, at ABHD6, on PLA2G7 and at MAGL was more than 75% in each case.
With `Cc1cc(N2CCN(C(=O)n3cc(-c4ccccc4)cn3)CC2)c2ccccc2n1` [Example 207, (4-(2-Methylquinolin-4-yl)piperazin-1-yl)(4-phenyl-1H-pyrazol-1-yl)methanone], the inhibition at 1 µM at FAAH is more than 75%; on ABHD6, more than 75%; at PLA2G7, 25 to 75%; on MAGL, 25 to 75%. Besides, the inhibition at 10 µM on FAAH, on ABHD6, on PLA2G7 and at MAGL was more than 75% each time.
`Cc1cc(N2CCN(C(=O)n3cc(Cl)cn3)CC2)c2ccccc2n1` [Example 208, (4-Chloro-1H-pyrazol-1-yl)(4-(2-methylquinolin-4-yl)piperazin-1-yl)methanone]: the inhibition at 1 µM on FAAH, on ABHD6, on PLA2G7 and on MAGL was more than 75% in each case. For the same compound, the inhibition at 10 µM at FAAH, on ABHD6, at PLA2G7 and on MAGL was more than 75% in each case.
As for `Cc1cc(N2CCN(C(=O)n3cc(C#N)cn3)CC2)c2ccccc2n1` [Example 209, 1-(4-(2-Methylquinolin-4-yl)piperazine-1-carbonyl)-1H-pyrazole-4-carbonitrile], the inhibition at 1 µM on FAAH, on ABHD6, at PLA2G7 and on MAGL was more than 75% each time. For the same compound, the inhibition at 10 µM on FAAH, on ABHD6, on PLA2G7 and on MAGL was more than 75% throughout.
In the case of `Cc1cc(N2CCN(C(=O)n3cc(C(F)(F)F)cn3)CC2)c2ccccc2n1` [Example 210, (4-(2-Methylquinolin-4-yl)piperazin-1-yl)(4-(trifluoromethyl)-1H-pyrazol-1-yl)methanone], the inhibition at 1 µM is more than 75% at FAAH, more than 75% on ABHD6, 25 to 75% at PLA2G7 and more than 75% at MAGL. The inhibition at 10 µM at FAAH, at ABHD6, on PLA2G7 and on MAGL was more than 75% each time. In addition, the IC50 on FAAH is more than 1000 nM; on ABHD6, 100 to 1000 nM; at PLA2G7 it was less than 100 nM; at MAGL, less than 100 nM.
